# pKi: −log10 of the molar value.
# Experiments:
# Rho kinase 1 = Rho kinase 1 (Homo sapiens, UniProt Q13464); experiment: In vitro Rho kinase inhibitory activity assay (ADP-Glo kit, Myelin Basic Protein substrate); type: biochemical; details: 10 μM ATP, 25° C., read-out: ROCK1 inhibitory activity (Ki, range of activity)
# Protocol: (§1) The effectiveness of compounds of the present invention to inhibit Rho kinase activity can be determined in a 10 μl assay containing 40 mM Tris pH7.5, 20 mM MgCl2 0.1 mg/ml BSA, 50 μM DTT and 2.5 μM peptide substrate (Myelin Basic Protein) using an ADP-Glo kit (Promega). Compounds were dissolved in DMSO such that the final concentration of DMSO was 1% in the assay. All reactions/incubations are performed at 25° C. Compound (2 ul) and either Rho kinase 1 or 2 (4 μl) were mixed and incubated for 30 mins. Reactions were initiated by addition of ATP (4 μl) such that the final concentration of ATP in the assay was 10 μM. After a 1 hour incubation 10 μl of ADP-Glo Reagent was added and after a further 45 minute incubation 20 ul of Kinase Detection Buffer was added and the mixture incubated for a further 30 minutes. The luminescent signal was measured on a luminometer. […] Compounds were tested in dose-response format and the inhibition of kinase activity was calculated at each concentration of compound. To determine the IC50 (concentration of compound required to inhibit 50% of the enzyme activity) data were fit to a plot of % inhibition vs Log10 compound concentration using a sigmoidal fit with a variable slope and fixing the maximum to 100% and the minimum to 0%. To determine the Ki values the Cheng-Prusoff equation was utilized (Ki=IC50/(1+[S]/Km).
# Rho kinase 2 = Rho kinase 2 (Homo sapiens, UniProt O75116); experiment: as above; type: biochemical; details: 10 μM ATP, 25° C., read-out: ROCK2 inhibitory activity (Ki, range of activity)
# Sequence of Rho kinase 2 (O75116 whole entry): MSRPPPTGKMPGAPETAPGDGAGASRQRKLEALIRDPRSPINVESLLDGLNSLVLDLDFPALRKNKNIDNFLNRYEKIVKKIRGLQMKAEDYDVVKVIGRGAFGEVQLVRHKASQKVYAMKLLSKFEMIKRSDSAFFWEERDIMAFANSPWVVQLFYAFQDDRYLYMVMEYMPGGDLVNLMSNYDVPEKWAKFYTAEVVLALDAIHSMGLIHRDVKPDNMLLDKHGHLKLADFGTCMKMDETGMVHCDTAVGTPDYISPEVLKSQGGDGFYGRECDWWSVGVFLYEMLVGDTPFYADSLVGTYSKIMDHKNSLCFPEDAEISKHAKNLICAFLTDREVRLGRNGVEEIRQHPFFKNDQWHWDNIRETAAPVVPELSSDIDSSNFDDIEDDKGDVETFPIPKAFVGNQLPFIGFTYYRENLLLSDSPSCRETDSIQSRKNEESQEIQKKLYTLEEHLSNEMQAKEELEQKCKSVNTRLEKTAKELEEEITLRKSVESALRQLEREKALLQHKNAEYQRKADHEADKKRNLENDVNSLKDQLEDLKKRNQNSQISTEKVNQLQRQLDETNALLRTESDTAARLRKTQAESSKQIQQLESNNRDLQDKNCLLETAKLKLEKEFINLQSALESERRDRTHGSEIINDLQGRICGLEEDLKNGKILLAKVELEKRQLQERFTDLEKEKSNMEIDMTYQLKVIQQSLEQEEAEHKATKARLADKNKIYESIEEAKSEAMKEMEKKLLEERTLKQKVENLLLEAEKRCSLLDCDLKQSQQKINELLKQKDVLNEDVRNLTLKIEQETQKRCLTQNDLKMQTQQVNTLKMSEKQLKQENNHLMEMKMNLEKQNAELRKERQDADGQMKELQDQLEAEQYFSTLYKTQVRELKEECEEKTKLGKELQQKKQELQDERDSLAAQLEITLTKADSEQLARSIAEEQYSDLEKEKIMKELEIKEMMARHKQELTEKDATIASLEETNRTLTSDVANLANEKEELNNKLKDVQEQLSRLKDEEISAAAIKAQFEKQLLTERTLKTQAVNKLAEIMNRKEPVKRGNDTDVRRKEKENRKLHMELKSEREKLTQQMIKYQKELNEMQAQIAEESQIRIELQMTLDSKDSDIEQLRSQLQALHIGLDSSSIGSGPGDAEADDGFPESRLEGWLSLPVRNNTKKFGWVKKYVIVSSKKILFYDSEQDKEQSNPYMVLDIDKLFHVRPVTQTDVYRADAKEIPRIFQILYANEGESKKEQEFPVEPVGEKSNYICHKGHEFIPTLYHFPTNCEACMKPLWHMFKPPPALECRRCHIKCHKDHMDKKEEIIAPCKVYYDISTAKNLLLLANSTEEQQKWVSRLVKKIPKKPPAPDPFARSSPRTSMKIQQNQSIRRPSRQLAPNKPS
# Protocol: as §1
# Sequence of Rho kinase 1 (Q13464 whole entry): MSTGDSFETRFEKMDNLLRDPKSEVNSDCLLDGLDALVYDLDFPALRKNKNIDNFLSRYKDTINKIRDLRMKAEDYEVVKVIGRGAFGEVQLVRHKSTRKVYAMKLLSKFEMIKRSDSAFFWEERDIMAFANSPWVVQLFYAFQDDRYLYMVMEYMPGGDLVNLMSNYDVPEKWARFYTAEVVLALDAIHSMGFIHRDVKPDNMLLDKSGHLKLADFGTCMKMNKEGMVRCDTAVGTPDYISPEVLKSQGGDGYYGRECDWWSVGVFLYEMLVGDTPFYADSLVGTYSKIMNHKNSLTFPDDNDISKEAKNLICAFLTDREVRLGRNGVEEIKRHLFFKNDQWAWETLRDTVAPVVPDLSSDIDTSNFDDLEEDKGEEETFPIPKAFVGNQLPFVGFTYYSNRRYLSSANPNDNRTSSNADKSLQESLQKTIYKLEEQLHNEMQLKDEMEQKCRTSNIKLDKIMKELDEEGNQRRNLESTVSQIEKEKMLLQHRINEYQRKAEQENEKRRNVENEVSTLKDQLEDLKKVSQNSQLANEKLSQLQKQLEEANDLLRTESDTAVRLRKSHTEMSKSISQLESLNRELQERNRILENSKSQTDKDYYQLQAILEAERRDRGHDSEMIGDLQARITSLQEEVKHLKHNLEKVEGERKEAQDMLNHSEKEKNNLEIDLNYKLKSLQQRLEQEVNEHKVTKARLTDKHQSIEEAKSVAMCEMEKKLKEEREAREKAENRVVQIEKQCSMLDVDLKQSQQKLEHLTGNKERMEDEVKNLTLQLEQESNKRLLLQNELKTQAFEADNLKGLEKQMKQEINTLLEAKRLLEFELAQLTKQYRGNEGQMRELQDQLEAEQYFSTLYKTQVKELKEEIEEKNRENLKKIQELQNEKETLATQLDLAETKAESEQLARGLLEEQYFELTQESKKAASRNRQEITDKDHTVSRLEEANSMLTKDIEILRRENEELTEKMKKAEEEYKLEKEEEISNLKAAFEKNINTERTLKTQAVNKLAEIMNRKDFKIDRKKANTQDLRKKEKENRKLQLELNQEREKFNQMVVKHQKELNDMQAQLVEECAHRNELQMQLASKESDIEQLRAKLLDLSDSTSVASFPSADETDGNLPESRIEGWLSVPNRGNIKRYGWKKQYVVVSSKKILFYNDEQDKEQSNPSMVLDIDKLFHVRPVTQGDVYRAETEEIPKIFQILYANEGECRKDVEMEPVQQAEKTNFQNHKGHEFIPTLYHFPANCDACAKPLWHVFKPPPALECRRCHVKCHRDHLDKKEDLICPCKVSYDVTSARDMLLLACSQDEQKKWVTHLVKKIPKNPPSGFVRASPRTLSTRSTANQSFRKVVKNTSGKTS
SMILES,pKi (Rho kinase 1),pKi (Rho kinase 2)
"CC1=C(C(=O)Nc2cc3cn[nH]c3cc2F)C(c2ccc(C(F)(F)F)c(F)c2)n2nnnc2N1 (single isomer, unassigned) [Example 40B, N-(6-fluoro-1H-indazol-5-yl)-7-(3-fluoro-4-(trifluoromethyl)phenyl)-5-methyl-4,7-dihydrotetrazolo[1,5-a]pyrimidine-6-carboxamide]",6.30 to 7.30,6.30 to 7.30
"CC1=C(C(=O)Nc2ccc3cnccc3c2)C(c2ccc(C(F)(F)F)cc2)n2nc(CO)cc2N1 (single isomer, unassigned) [Example 43A, 2-(hydroxymethyl)-N-(isoquinolin-6-yl)-5-methyl-7-(4-(trifluoromethyl)phenyl)-4,7-dihydropyrazolo[1,5-a]pyrimidine-6-carboxamide]",< 6.30,6.30 to 7.30
"CC1=C(C(=O)Nc2ccc3cnccc3c2)C(c2ccc(C(F)(F)F)cc2)n2nc(CO)cc2N1 (single isomer, unassigned) [Example 43B, 2-(hydroxymethyl)-N-(isoquinolin-6-yl)-5-methyl-7-(4-(trifluoromethyl)phenyl)-4,7-dihydropyrazolo[1,5-a]pyrimidine-6-carboxamide]",> 7.30,> 7.30
"CC1=C(C(=O)Nc2ccc3cnccc3c2)C(C2Cc3ccccc3C2)n2nc(CO)cc2N1 (single isomer, unassigned) [Example 60A, 7-(2,3-dihydro-1H-inden-2-yl)-2-(hydroxymethyl)-N-(isoquinolin-6-yl)-5-methyl-4,7-dihydropyrazolo[1,5-a]pyrimidine-6-carboxamide]",> 7.30,> 7.30
"CC1=C(C(=O)Nc2ccc3cnccc3c2)C(C2Cc3ccccc3C2)n2nc(CO)cc2N1 (single isomer, unassigned) [Example 60B, 7-(2,3-dihydro-1H-inden-2-yl)-2-(hydroxymethyl)-N-(isoquinolin-6-yl)-5-methyl-4,7-dihydropyrazolo[1,5-a]pyrimidine-6-carboxamide]",6.30 to 7.30,6.30 to 7.30
"CC1=C(C(=O)Nc2ccc3cnccc3c2)C(c2ccc(Br)cc2)n2nc(CO)cc2N1 (single isomer, unassigned) [Example 61A, 7-(4-bromophenyl)-2-(hydroxymethyl)-N-(isoquinolin-6-yl)-5-methyl-4,7-dihydropyrazolo[1,5-a]pyrimidine-6-carboxamide]",> 7.30,> 7.30
"CC1=C(C(=O)Nc2ccc3cnccc3c2)C(c2ccc(Br)cc2)n2nc(CO)cc2N1 (single isomer, unassigned) [Example 61B, 7-(4-bromophenyl)-2-(hydroxymethyl)-N-(isoquinolin-6-yl)-5-methyl-4,7-dihydropyrazolo[1,5-a]pyrimidine-6-carboxamide]",6.30 to 7.30,6.30 to 7.30
"CC1=C(C(=O)Nc2ccc3cnccc3c2)C(c2ccc(Cl)cc2)n2nc(CO)cc2N1 (single isomer, unassigned) [Example 62A, 7-(4-chlorophenyl)-2-(hydroxymethyl)-N-(isoquinolin-6-yl)-5-methyl-4,7-dihydropyrazolo[1,5-a]pyrimidine-6-carboxamide]",> 7.30,> 7.30
"CC1=C(C(=O)Nc2ccc3cnccc3c2)C(c2ccc(Cl)cc2)n2nc(CO)cc2N1 (single isomer, unassigned) [Example 62B, 7-(4-chlorophenyl)-2-(hydroxymethyl)-N-(isoquinolin-6-yl)-5-methyl-4,7-dihydropyrazolo[1,5-a]pyrimidine-6-carboxamide]",6.30 to 7.30,6.30 to 7.30
"CC1=C(C(=O)Nc2ccc3cnccc3c2)C(c2ccc(C(F)(F)F)c(F)c2)n2nc(CO)cc2N1 (single isomer, unassigned) [Example 65A, 7-(3-fluoro-4-(trifluoromethyl)phenyl)-2-(hydroxymethyl)-N-(isoquinolin-6-yl)-5-methyl-4,7-dihydropyrazolo[1,5-a]pyrimidine-6-carboxamide]",> 7.30,> 7.30
"CC1=C(C(=O)Nc2ccc3cnccc3c2)C(c2ccc(C(F)(F)F)c(F)c2)n2nc(CO)cc2N1 (single isomer, unassigned) [Example 65B, 7-(3-fluoro-4-(trifluoromethyl)phenyl)-2-(hydroxymethyl)-N-(isoquinolin-6-yl)-5-methyl-4,7-dihydropyrazolo[1,5-a]pyrimidine-6-carboxamide]",> 7.30,> 7.30
"CC1=C(C(=O)Nc2ccc3[nH]ncc3c2)C(c2ccc(C(F)(F)F)cc2)n2nc(CO)cc2N1 (single isomer, unassigned) [Example 69A, 2-(hydroxymethyl)-N-(1H-indazol-5-yl)-5-methyl-7-(4-(trifluoromethyl)phenyl)-4,7-dihydropyrazolo[1,5-a]pyrimidine-6-carboxamide]",6.30 to 7.30,6.30 to 7.30
"CC1=C(C(=O)Nc2ccc3[nH]ncc3c2)C(c2ccc(C(F)(F)F)cc2)n2nc(CO)cc2N1 (single isomer, unassigned) [Example 69B, 2-(hydroxymethyl)-N-(1H-indazol-5-yl)-5-methyl-7-(4-(trifluoromethyl)phenyl)-4,7-dihydropyrazolo[1,5-a]pyrimidine-6-carboxamide]",> 7.30,> 7.30

# Next, values leading:
pKi (Rho kinase 1),pKi (Rho kinase 2),SMILES
> 7.30,> 7.30,"CC1=C(C(=O)Nc2ccc3[nH]ncc3c2)C(c2ccc(F)cc2)n2nc(CO)cc2N1 (single isomer, unassigned) [Example 71A, 7-(4-fluorophenyl)-2-(hydroxymethyl)-N-(1H-indazol-5-yl)-5-methyl-4,7-dihydropyrazolo[1,5-a]pyrimidine-6-carboxamide]"
< 6.30,< 6.30,"CC1=C(C(=O)Nc2ccc3[nH]ncc3c2)C(c2ccc(F)cc2)n2nc(CO)cc2N1 (single isomer, unassigned) [Example 71B, 7-(4-fluorophenyl)-2-(hydroxymethyl)-N-(1H-indazol-5-yl)-5-methyl-4,7-dihydropyrazolo[1,5-a]pyrimidine-6-carboxamide]"
> 7.30,> 7.30,"CC1=C(C(=O)Nc2ccc3cnccc3c2)C(C2COc3ccccc3O2)n2nc(CO)cc2N1 (single isomer, unassigned) [Example 72A, 7-(2,3-dihydrobenzo[b][1,4]dioxin-2-yl)-2-(hydroxymethyl)-N-(isoquinolin-6-yl)-5-methyl-4,7-dihydropyrazolo[1,5-a]pyrimidine-6-carboxamide]"
> 7.30,> 7.30,"CC1=C(C(=O)Nc2ccc3cnccc3c2)C(C2COc3ccccc3O2)n2nc(CO)cc2N1 (single isomer, unassigned) [Example 72B, 7-(2,3-dihydrobenzo[b][1,4]dioxin-2-yl)-2-(hydroxymethyl)-N-(isoquinolin-6-yl)-5-methyl-4,7-dihydropyrazolo[1,5-a]pyrimidine-6-carboxamide]"
6.30 to 7.30,6.30 to 7.30,"CC1=C(C(=O)Nc2ccc3cnccc3c2)C(C2COc3ccccc3O2)n2nc(CO)cc2N1 (single isomer, unassigned) [Example 72C, 7-(2,3-dihydrobenzo[b][1,4]dioxin-2-yl)-2-(hydroxymethyl)-N-(isoquinolin-6-yl)-5-methyl-4,7-dihydropyrazolo[1,5-a]pyrimidine-6-carboxamide]"
6.30 to 7.30,6.30 to 7.30,"CC1=C(C(=O)Nc2ccc3cnccc3c2)C(C2COc3ccccc3O2)n2nc(CO)cc2N1 (single isomer, unassigned) [Example 72D, 7-(2,3-dihydrobenzo[b][1,4]dioxin-2-yl)-2-(hydroxymethyl)-N-(isoquinolin-6-yl)-5-methyl-4,7-dihydropyrazolo[1,5-a]pyrimidine-6-carboxamide]"
6.30 to 7.30,> 7.30,"CC1=C(C(=O)Nc2ccc3cnccc3c2)C(c2ccc(C(F)(F)F)c(F)c2)n2nc(C(=O)N(C)CCN3CCCCC3)cc2N1 (single isomer, unassigned) [Example 78A, 7-(3-fluoro-4-(trifluoromethyl)phenyl)-N6-(isoquinolin-6-yl)-N2,5-dimethyl-N2-(2-(piperidin-1-yl)ethyl)-4,7-dihydropyrazolo[1,5-a]pyrimidine-2,6-dicarboxamide]"
> 7.30,> 7.30,"CC1=C(C(=O)Nc2ccc3cnccc3c2)C(c2ccc(C(F)(F)F)c(F)c2)n2nc(C(=O)N(C)CCN3CCCCC3)cc2N1 (single isomer, unassigned) [Example 78B, 7-(3-fluoro-4-(trifluoromethyl)phenyl)-N6-(isoquinolin-6-yl)-N2,5-dimethyl-N2-(2-(piperidin-1-yl)ethyl)-4,7-dihydropyrazolo[1,5-a]pyrimidine-2,6-dicarboxamide]"
6.30 to 7.30,6.30 to 7.30,"CC1=C(C(=O)Nc2ccc3cnccc3c2)C(c2ccc(C(F)(F)F)c(F)c2)n2nc(CN(C)C)cc2N1 (single isomer, unassigned) [Example 94A, 2-((dimethylamino)methyl)-7-(3-fluoro-4-(trifluoromethyl)phenyl)-N-(isoquinolin-6-yl)-5-methyl-4,7-dihydropyrazolo[1,5-a]pyrimidine-6-carboxamide]"

# Reference: US10584128B2, “Bicyclic dihydropyrimidine-carboxamide derivatives as Rho-Kinase inhibitors” (CHIESI FARMACEUTICI S.p.A., priority 2016, dated 2020)
